Measured values reported in the supplement of paper PMC10307832.

Assays:
Test in all cases: relative viability (nuclei count vs DMSO), 5 days (fraction); higher = more cells survive
[1] = test system: CAL-12T
Procedure, shortened: (§1)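 Relative viability divides the nuclei count in treated wells by that in vehicle wells. Lung cancer cell lines were seeded in 1536-well plates, dosed by pin tool the next day, and fixed and stained after 5 days in one step with final 0.05% Triton X-100, 1% formaldehyde and 1 ug/ml Hoechst. Dosing was a single drug or a fixed anchor-drug dose plus five library-drug doses (not always all listed) in √10 steps, and values are medians of duplicate plates imaged at 4×.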

[2] = test system: EKVX
Procedure, shortened: as §1

[3] = test system: H3255
Procedure, shortened: as §1

[4] = test system: HCC-15
Procedure, shortened: as §1

[5] = test system: HCC-827
Procedure, shortened: as §1

[6] = test system: LCLC-97TM1
Procedure, shortened: as §1

[7] = test system: LK-2
Procedure, shortened: as §1

[8] = test system: NCI-H1355
Procedure, shortened: as §1

[9] = test system: NCI-H1650
Procedure, shortened: as §1

[10] = test system: NCI-H1734
Procedure, shortened: as §1

[11] = test system: NCI-H1755
Procedure, shortened: as §1

[12] = test system: NCI-H1975
Procedure, shortened: as §1

[13] = test system: NCI-H2228
Procedure, shortened: as §1

[14] = test system: NCI-H2342
Procedure, shortened: as §1

[15] = test system: NCI-H2405
Procedure, shortened: as §1

[16] = test system: NCI-H322M
Procedure, shortened: as §1

[17] = test system: NCI-H520
Procedure, shortened: as §1

[18] = test system: NCI-H661
Procedure, shortened: as §1

[19] = test system: PC-14
Procedure, shortened: as §1

[20] = test system: PC-3 [JPC-3]
Procedure, shortened: as §1

[21] = test system: RERF-LC-KJ
Procedure, shortened: as §1

O=c1cc(N2CCOCC2)oc2c(-c3cccc4c3sc3ccccc34)cccc12 + CC(=O)Nc1cccc(-n2c(=O)n(C3CC3)c(=O)c3c(Nc4ccc(I)cc4F)n(C)c(=O)c(C)c32)c1 [Trametinib] (partner 0.02 µM)
relative viability ([1]; first compound 0.01 µM): 0.334
relative viability ([1]; first compound 0.03162 µM): 0.417
relative viability ([1]; first compound 0.1 µM): 0.354
relative viability ([1]; first compound 0.3162 µM): 0.381
relative viability ([1]; first compound 1 µM): 0.363
relative viability ([2]; first compound 0.01 µM): 0.299
relative viability ([2]; first compound 0.03162 µM): 0.312
relative viability ([2]; first compound 0.1 µM): 0.337
relative viability ([2]; first compound 0.3162 µM): 0.321
relative viability ([2]; first compound 1 µM): 0.303
relative viability ([3]; first compound 0.01 µM): 0.548
relative viability ([3]; first compound 0.03162 µM): 0.691
relative viability ([3]; first compound 0.1 µM): 0.675
relative viability ([3]; first compound 0.3162 µM): 0.703
relative viability ([3]; first compound 1 µM): 0.552
relative viability ([4]; first compound 0.01 µM): 0.384
relative viability ([4]; first compound 0.03162 µM): 0.388
relative viability ([4]; first compound 0.1 µM): 0.288
relative viability ([4]; first compound 0.3162 µM): 0.368
relative viability ([4]; first compound 1 µM): 0.364
relative viability ([5]; first compound 0.01 µM): 0.528
relative viability ([5]; first compound 0.03162 µM): 0.508
relative viability ([5]; first compound 0.1 µM): 0.547
relative viability ([5]; first compound 0.3162 µM): 0.504
relative viability ([5]; first compound 1 µM): 0.525
relative viability ([6]; first compound 0.01 µM): 0.197
relative viability ([6]; first compound 0.03162 µM): 0.161
relative viability ([6]; first compound 0.1 µM): 0.173
relative viability ([6]; first compound 0.3162 µM): 0.173
relative viability ([6]; first compound 1 µM): 0.193
relative viability ([7]; first compound 0.01 µM): 0.808
relative viability ([7]; first compound 0.03162 µM): 0.807
relative viability ([7]; first compound 0.1 µM): 0.957
relative viability ([7]; first compound 0.3162 µM): 0.515
relative viability ([7]; first compound 1 µM): 0.902
relative viability ([8]; first compound 0.01 µM): 0.435
relative viability ([8]; first compound 0.03162 µM): 0.435
relative viability ([8]; first compound 0.1 µM): 0.435
relative viability ([8]; first compound 0.3162 µM): 0.409
relative viability ([8]; first compound 1 µM): 0.399
relative viability ([9]; first compound 0.01 µM): 0.526
relative viability ([9]; first compound 0.03162 µM): 0.643
relative viability ([9]; first compound 0.1 µM): 0.782
relative viability ([9]; first compound 0.3162 µM): 0.571
relative viability ([9]; first compound 1 µM): 0.517
relative viability ([10]; first compound 0.01 µM): 0.772
relative viability ([10]; first compound 0.03162 µM): 0.747
relative viability ([10]; first compound 0.1 µM): 0.637
relative viability ([10]; first compound 0.3162 µM): 0.69
relative viability ([10]; first compound 1 µM): 0.758
relative viability ([11]; first compound 0.01 µM): 0.807
relative viability ([11]; first compound 0.03162 µM): 0.83
relative viability ([11]; first compound 0.1 µM): 0.81
relative viability ([11]; first compound 0.3162 µM): 0.741
relative viability ([11]; first compound 1 µM): 0.819
relative viability ([12]; first compound 0.01 µM): 0.434
relative viability ([12]; first compound 0.03162 µM): 0.337
relative viability ([12]; first compound 0.1 µM): 0.401
relative viability ([12]; first compound 0.3162 µM): 0.361
relative viability ([12]; first compound 1 µM): 0.293
relative viability ([13]; first compound 0.01 µM): 0.723
relative viability ([13]; first compound 0.03162 µM): 0.424
relative viability ([13]; first compound 0.1 µM): 0.43
relative viability ([13]; first compound 0.3162 µM): 0.557
relative viability ([13]; first compound 1 µM): 0.534
relative viability ([14]; first compound 0.01 µM): 0.728
relative viability ([14]; first compound 0.03162 µM): 0.874
relative viability ([14]; first compound 0.1 µM): 0.928
relative viability ([14]; first compound 0.3162 µM): 0.962
relative viability ([14]; first compound 1 µM): 0.833
relative viability ([15]; first compound 0.01 µM): 0.751
relative viability ([15]; first compound 0.03162 µM): 0.664
relative viability ([15]; first compound 0.1 µM): 0.631
relative viability ([15]; first compound 0.3162 µM): 0.686
relative viability ([15]; first compound 1 µM): 0.665
relative viability ([16]; first compound 0.01 µM): 0.494
relative viability ([16]; first compound 0.03162 µM): 0.486
relative viability ([16]; first compound 0.3162 µM): 0.495
relative viability ([16]; first compound 1 µM): 0.494
relative viability ([17]; first compound 0.01 µM): 1.14
relative viability ([17]; first compound 0.03162 µM): 0.594
relative viability ([17]; first compound 0.1 µM): 0.768
relative viability ([17]; first compound 0.3162 µM): 0.717
relative viability ([17]; first compound 1 µM): 0.732
relative viability ([18]; first compound 0.01 µM): 0.541
relative viability ([18]; first compound 0.03162 µM): 0.587
relative viability ([18]; first compound 0.1 µM): 0.674
relative viability ([18]; first compound 0.3162 µM): 0.581
relative viability ([18]; first compound 1 µM): 0.603
relative viability ([19]; first compound 0.01 µM): 0.843
relative viability ([19]; first compound 0.03162 µM): 0.744
relative viability ([19]; first compound 0.1 µM): 0.745
relative viability ([19]; first compound 0.3162 µM): 0.775
relative viability ([19]; first compound 1 µM): 0.832
relative viability ([20]; first compound 0.01 µM): 0.623
relative viability ([20]; first compound 0.03162 µM): 0.675
relative viability ([20]; first compound 0.1 µM): 0.649
relative viability ([20]; first compound 0.3162 µM): 0.729
relative viability ([20]; first compound 1 µM): 0.655
relative viability ([21]; first compound 0.01 µM): 0.824
relative viability ([21]; first compound 0.03162 µM): 0.874
relative viability ([21]; first compound 0.1 µM): 0.936
relative viability ([21]; first compound 0.3162 µM): 0.836
relative viability ([21]; first compound 1 µM): 0.798
